{
  "source": "patent US12194177B2",
  "about": "“Systems and methods for delivering chlorine dioxide using a liquid curtain” (Sabre IP Acquistionco, LLC, priority 2019, dated 2025)",
  "key": {"[1]": {"experiment": "Chlorine dioxide retention in liquid treatment solution, curtain application method", "type": "physicochemical", "settings": "for Average ClO2 loss in ppm (±STDEV): location A minus location D; for Average ClO2 concentration in ppm (±STDEV): curtain, ambient 65-70 °F", "source_text": "(§1) In this example, two methods for applying a liquid chlorine dioxide treatment solution were compared with a chlorine dioxide treatment solution having the same volume and initial chlorine dioxide concentration, and using a system with the same delivery rate. One method was a curtain delivery method and the other method was a low-pressure spray method.\n(§2) For both the methods a 330-gallon tote was used as the source fluid reservoir. The tote was filled with about 75 gallons of fresh water and also contained submersible sump-pump that provided the fluid flow to the system. A 6.6 gallon per minute (GPM) rotameter was in line between the pump and the chlorine dioxide delivery system that delivered a concentrated solution of chlorine dioxide (˜1700 ppm) so as to make a liquid chlorine dioxide treatment solution containing an initial concentration (approximately 5 ppm) of chlorine dioxide. The delivery system sat over an aluminum sheet on a slight gradient, to provide a homogenous flow pathway of the treatment solution. The aluminum sheet allowed the treatment fluid to cascade back into the tote for recirculation. During experimentation, the rotameter was set to allow for approximately 4 GPM ([…]) of constant flow, achieved by slight pinching of a ball valve in line and downstream of the rotameter. The treatment solution was circulated through the system for a few minutes and if needed, additional concentrated solution was added to achieve the initial concentration (approximately 5 ppm chlorine dioxide) in the treatment solution before experimental runs commenced.\nFor the curtain application, a rain gutter was modified to serve as a trough for the fluid to fill into. The front wall of the trough was modified; it was slightly shorter and was rounded to achieve laminar or predominantly laminar flow of the fluid over the wall of the trough and down over the target belt (belt to be used for moving eggs or other products to be treated with the treatment solution). The trough also contained pieces of plastics filter media (a type of baffle) that converted the turbulent flow of the trough being filled to more homogenous, laminar flow allowing a sheer curtain or waterfall effect to be achieved consistently across the entire length of the trough, such that the curtain fell onto the target belt. […] The curtain was about 11″ in height and approximately 2-2.5 feet wide.\n(§3) Each application method was tested in multiple runs in which the liquid chlorine dioxide treatment solution was maintained at a particular target temperature (approximately 120° F. (this is the high temperature curtain or spray as referred to in Table 3) or a temperature of 60-75° F. (this is the low temperature curtain or spray as referred to in Table 3)).\n(§4) For the curtain application method, the fluid was sampled at four locations: (A) from the hose that delivered treatment solution into the trough, (B) where the fluid entered the trough (C) within the trough near the exit where fluid flowed out of the trough to form the curtain, (D) where the fluid of the curtain fell onto the belt. For the spray application, the fluid was sampled at three locations: (A) from the hose that delivered treatment solution into the sprayer nozzle, (B) from the fluid as it exited the sprayer nozzle, (C) where the fluid of the spray fell onto the belt.\n(§5) Chlorine dioxide concentrations were determined using the Palintest ChlordioX Plus device in accordance with the manufacturer's instructions."}, "[2]": {"experiment": "Chlorine dioxide retention in liquid treatment solution, low-pressure spray application method", "type": "physicochemical", "settings": "for Average ClO2 loss in ppm (±STDEV): location A minus location C; for Average ClO2 concentration in ppm (±STDEV): spray, ambient 65-70 °F", "source_text": "as §1, §2\nFor the spray application, a series of nozzles were used to apply the treatment solution.\nas §3, §4, §5"}},
  "data": [
    {"smiles": "[O][Cl+][O-]", "note": "[ClO2, chlorine dioxide]", "values": [
      {"measurement": "Average ClO2 loss in ppm (±STDEV)", "setting": "[1]; Curtain with high temperature (approximately 120 °F)", "result": "1.95 ± 0.58", "unit": "ppm"},
      {"measurement": "Average ClO2 loss in ppm (±STDEV)", "setting": "[1]; Curtain with low temperature (60-75 °F)", "result": "1.37 ± 0.27", "unit": "ppm"},
      {"measurement": "Average ClO2 concentration in ppm (±STDEV)", "setting": "[1]; treatment fluid 65-75 °F, location A (hose delivering treatment solution into trough)", "result": "4.88 ± 0.87", "unit": "ppm"},
      {"measurement": "Average ClO2 concentration in ppm (±STDEV)", "setting": "[1]; treatment fluid 65-75 °F, location B (where fluid entered the trough)", "result": "4.91 ± 0.83", "unit": "ppm"},
      {"measurement": "Average ClO2 concentration in ppm (±STDEV)", "setting": "[1]; treatment fluid 65-75 °F, location C (within trough near the exit)", "result": "4.39 ± 0.79", "unit": "ppm"},
      {"measurement": "Average ClO2 concentration in ppm (±STDEV)", "setting": "[1]; treatment fluid 65-75 °F, location D (where curtain fell onto the belt)", "result": "3.51 ± 0.68", "unit": "ppm"},
      {"measurement": "Average ClO2 concentration in ppm (±STDEV)", "setting": "[1]; treatment fluid 110-120 °F, location A (hose delivering treatment solution into trough)", "result": "5.28 ± 0.59", "unit": "ppm"},
      {"measurement": "Average ClO2 concentration in ppm (±STDEV)", "setting": "[1]; treatment fluid 110-120 °F, location B (where fluid entered the trough)", "result": "4.70 ± 0.28", "unit": "ppm"},
      {"measurement": "Average ClO2 concentration in ppm (±STDEV)", "setting": "[1]; treatment fluid 110-120 °F, location C (within trough near the exit)", "result": "4.51 ± 0.52", "unit": "ppm"},
      {"measurement": "Average ClO2 concentration in ppm (±STDEV)", "setting": "[1]; treatment fluid 110-120 °F, location D (where curtain fell onto the belt)", "result": "3.34 ± 0.58", "unit": "ppm"},
      {"measurement": "Average ClO2 loss in ppm (±STDEV)", "setting": "[2]; Spray with high temperature (approximately 120 °F)", "result": "3.24 ± 0.67", "unit": "ppm"},
      {"measurement": "Average ClO2 loss in ppm (±STDEV)", "setting": "[2]; Spray with low temperature (60-75 °F)", "result": "1.44 ± 0.38", "unit": "ppm"},
      {"measurement": "Average ClO2 concentration in ppm (±STDEV)", "setting": "[2]; treatment fluid 60-70 °F, location A (hose delivering treatment solution into sprayer nozzle)", "result": "4.86 ± 0.54", "unit": "ppm"},
      {"measurement": "Average ClO2 concentration in ppm (±STDEV)", "setting": "[2]; treatment fluid 60-70 °F, location B (fluid as it exited the sprayer nozzle)", "result": "4.34 ± 0.71", "unit": "ppm"},
      {"measurement": "Average ClO2 concentration in ppm (±STDEV)", "setting": "[2]; treatment fluid 60-70 °F, location C (where spray fell onto the belt)", "result": "3.43 ± 0.61", "unit": "ppm"},
      {"measurement": "Average ClO2 concentration in ppm (±STDEV)", "setting": "[2]; treatment fluid 110-120 °F, location A (hose delivering treatment solution into sprayer nozzle)", "result": "5.28 ± 0.58", "unit": "ppm"},
      {"measurement": "Average ClO2 concentration in ppm (±STDEV)", "setting": "[2]; treatment fluid 110-120 °F, location B (fluid as it exited the sprayer nozzle)", "result": "3.57 ± 0.53", "unit": "ppm"},
      {"measurement": "Average ClO2 concentration in ppm (±STDEV)", "setting": "[2]; treatment fluid 110-120 °F, location C (where spray fell onto the belt)", "result": "2.04 ± 0.45", "unit": "ppm"}
    ]}
  ]
}
